# pEC50, pIC50: −log10 of the molar value. Like-named read-outs stand apart in the source and are kept apart here.
# Test system: 280 human cancer cell lines
# Assay: OncoPanel cell proliferation assay (10-day)
# Format: cell-based
# Details: Homo sapiens; for GI50: read-out: Cell Count GI50; for pIC50: read-out: Cell Count IC50; for pEC50: read-out: Cell Count EC50
# [1] = C-4-II, C-4 II, Female GU - Cervix
# [2] = C-33-A, C-33A, Female GU - Cervix
# [3] = CAL-62, CAL-62, Endocrine - Thyroid
# [4] = CCF-STTG1, CCF-STTG1, CNS - Glioma
# [5] = CGTH-W-1, CGTH-W-1, Endocrine - Thyroid
# [6] = CHP-212, CHP-212, CNS - Neuroblastoma
# [7] = COLO-320-HSR, Colo 320 HSR, Colon
# [8] = COLO-829, COLO 829, Skin (Melanoma)
# [9] = COR-L105, COR-L105, Lung - NSCLC
# [10] = Ca-Ski, Ca Ski, Female GU - Ovary
smiles,measurement,setting,value
"CC(C)=CCC[C@@H]1C(O)Oc2c(C)cc(O)c3c2[C@H]1CC[C@H]3C (some centres unmarked) [Compound 2, 5,18-epoxyserrulat-14-en-8,18-diol]",GI50,"BT-474, BT474, Breast",> 30 µM
same,pIC50,"BT-474, BT474, Breast",< 4.52
same,pEC50,"BT-549, BT-549, Breast",4.59
same,GI50,"BT-549, BT-549, Breast",25.8 µM
same,pIC50,"BT-549, BT-549, Breast",4.59
same,pEC50,"BV-173, BV-173, Leukemia",5.03
same,GI50,"BV-173, BV-173, Leukemia",9.33 µM
same,pIC50,"BV-173, BV-173, Leukemia",5.03
same,pEC50,"BXPC-3, BxPC-3, Pancreas",4.89
same,GI50,"BXPC-3, BxPC-3, Pancreas",> 30 µM
same,pIC50,"BXPC-3, BxPC-3, Pancreas",< 4.52
same,pEC50,"BeWo, Placenta",5.11
same,GI50,"BeWo, Placenta",> 30 µM
same,pIC50,"BeWo, Placenta",< 4.52
same,pEC50,"C32, Skin (Melanoma)",4.72
same,GI50,"C32, Skin (Melanoma)",15.5 µM
same,pIC50,"C32, Skin (Melanoma)",4.72
same,pEC50,[1],5.05
same,GI50,[1],9 µM
same,pIC50,[1],5.04
same,pEC50,[2],4.92
same,GI50,[2],11.9 µM
same,pIC50,[2],4.92
same,pEC50,"CA46, CA46, Lymphoma",5.42
same,GI50,"CA46, CA46, Lymphoma",3.82 µM
same,pIC50,"CA46, CA46, Lymphoma",5.42
same,pEC50,"CAKI-1, Caki-1, Kidney",6.77
same,GI50,"CAKI-1, Caki-1, Kidney",> 30 µM
same,pIC50,"CAKI-1, Caki-1, Kidney",< 4.52
same,pEC50,"CAKI-2, Caki-2, Kidney",4.54
same,GI50,"CAKI-2, Caki-2, Kidney",28.9 µM
same,pIC50,"CAKI-2, Caki-2, Kidney",4.54
same,pEC50,"CAL-27, Cal 27, Head and Neck",5.12
same,GI50,"CAL-27, Cal 27, Head and Neck",7.62 µM
same,pIC50,"CAL-27, Cal 27, Head and Neck",5.12
same,pEC50,[3],5.25
same,GI50,[3],5.78 µM
same,pIC50,[3],5.24
same,pEC50,"CAMA-1, CAMA-1, Breast",< 4.52
same,GI50,"CAMA-1, CAMA-1, Breast",> 30 µM
same,pIC50,"CAMA-1, CAMA-1, Breast",< 4.52
same,pEC50,"CAPAN-1, Capan-1, Pancreas",< 4.52
same,GI50,"CAPAN-1, Capan-1, Pancreas",> 30 µM
same,pIC50,"CAPAN-1, Capan-1, Pancreas",< 4.52
same,pEC50,[4],< 4.52
same,GI50,[4],> 30 µM
same,pIC50,[4],< 4.52
same,pEC50,"CCRF-CEM, CCRFCEM, Leukemia",4.94
same,GI50,"CCRF-CEM, CCRFCEM, Leukemia",11.4 µM
same,pIC50,"CCRF-CEM, CCRFCEM, Leukemia",4.94
same,pEC50,"CEM/C1, CEM-C1, Leukemia",5.49
same,GI50,"CEM/C1, CEM-C1, Leukemia",3.26 µM
same,pIC50,"CEM/C1, CEM-C1, Leukemia",5.49
same,pEC50,"CFPAC-1, CFPAC-1, Pancreas",4.91
same,GI50,"CFPAC-1, CFPAC-1, Pancreas",13.4 µM
same,pIC50,"CFPAC-1, CFPAC-1, Pancreas",4.87
same,pEC50,[5],5.23
same,GI50,[5],5.81 µM
same,pIC50,[5],5.23
same,pEC50,"CHL-1, CHL-1, Skin (Melanoma)",4.84
same,GI50,"CHL-1, CHL-1, Skin (Melanoma)",14.2 µM
same,pIC50,"CHL-1, CHL-1, Skin (Melanoma)",4.84
same,pEC50,[6],4.94
same,GI50,[6],11.1 µM
same,pIC50,[6],4.94
same,pEC50,"CML-T1, CML-T1, Leukemia",5.43
same,GI50,"CML-T1, CML-T1, Leukemia",3.68 µM
same,pIC50,"CML-T1, CML-T1, Leukemia",5.43
same,pEC50,"COLO 201, Colo 201, Colon",5.07
same,GI50,"COLO 201, Colo 201, Colon",8.45 µM
same,pIC50,"COLO 201, Colo 201, Colon",5.07
same,pEC50,"COLO 205, Colo 205, Colon",4.97
same,GI50,"COLO 205, Colo 205, Colon",10.7 µM
same,pIC50,"COLO 205, Colo 205, Colon",4.97
same,pEC50,"COLO 320DM, Colon",5.11
same,GI50,"COLO 320DM, Colon",7.67 µM
same,pIC50,"COLO 320DM, Colon",5.11
same,pEC50,[7],4.94
same,GI50,[7],11.6 µM
same,pIC50,[7],4.94
same,pEC50,[8],5.27
same,GI50,[8],4.93 µM
same,pIC50,[8],5.27
same,pEC50,"COR-L23, COR-L23, Lung - NSCLC",4.62
same,GI50,"COR-L23, COR-L23, Lung - NSCLC",23.6 µM
same,pIC50,"COR-L23, COR-L23, Lung - NSCLC",4.62
same,pEC50,[9],5.32
same,GI50,[9],4.61 µM
same,pIC50,[9],5.32
same,pEC50,"CRO-AP2, CRO-AP2, Lymphoma",5.20
same,GI50,"CRO-AP2, CRO-AP2, Lymphoma",6.36 µM
same,pIC50,"CRO-AP2, CRO-AP2, Lymphoma",5.20
same,pEC50,[10],< 4.52
same,GI50,[10],> 30 µM
same,pIC50,[10],< 4.52
same,pEC50,"Calu-1, Calu1, Lung - NSCLC",4.86
same,GI50,"Calu-1, Calu1, Lung - NSCLC",13.8 µM
same,pIC50,"Calu-1, Calu1, Lung - NSCLC",4.86
same,pEC50,"Calu-6, Calu6, Lung - NSCLC",4.84
same,GI50,"Calu-6, Calu6, Lung - NSCLC",15.7 µM
same,pIC50,"Calu-6, Calu6, Lung - NSCLC",4.78
